Test results reported in patent US20230241017A1, “Hydrophilic Degradable Microsphere for Delivering Travoprost” (Occlugel, priority 2020, published 2023).
Marks after values point to notes of the source that are not given here.

Assays:
[1] = In vitro release of travoprost in PBS after extemporaneous loading; assay type: physicochemical; conditions: from MS5 after extemporaneous loading; PBS 37 °C (FIG. 7)
Description: Then, PBS (50 mL) was added to the microspheres loaded with travoprost for the in vitro drug release experiment (37° C., 150 rpm). The medium was completely renewed after each sample collection. The amounts of travoprost in PBS supernatants were determined by RP-HPLC at 222 nm on a C18 column (46×150 mm) using a mobile phase made of acetonitrile/water containing 0.1% TFA (60:40, v/v) at a flow rate of 1 mL/min in the isocratic mode at 25° C.

[2] = Extemporaneous loading of latanoprost and latanoprostene BUNOD on sterile MS5; assay type: physicochemical; conditions: for Drug loading on MS5: extemporaneous loading on freeze-dried e-beam sterilized MS5, 5 min room temperature; for loading efficiencies (%) on MS5: extemporaneous loading on sterile MS5, 5 min room temperature
Description: After the sieving step of MS5, 100 μL or 250 μL of pellets were suspended in 5 mL of a solution containing 2.5% (w/v) of mannitol. After homogenization, the pellets of microspheres were recovered, frozen-dried and sterilized by e-beam radiation (25 kilograys).
Latanoprost Loading To the dry and sterile pellets of microspheres (250 μL), 500 μL of latanoprost solution (TRC-L177280-10MG) at 2 mg/mL in acetonitrile/water mixture (70/30) were added. After 5 min of mixing at room temperature under stirring on a tube rotator (=30 rpm), the supernatants were removed for the measurement of unbound latanoprost by RP-HPLC at 210 nm on a C18 column (46×150 mm) using a mobile phase made of acetonitrile/water containing 0.1% TFA (60:40, v/v) at a flow rate of 1 mL/min in the isocratic mode at 25° C. The amount of latanoprost in supernatants was obtained by extrapolation from a standard curve (0.5 to 20 μg/mL). The loaded dose was calculated by subtracting the final amount of latanoprost from the initial amount. The latanoprost loading for 1 mL of beads was obtained by multiplying by 4 the quantity loaded on 250 μL of MS.
Latanoprostene BUNOD is a nitric oxide (NO)-donating prostaglandin F2a analogue approved for the reduction of intraocular pressure in patients with open-angle glaucoma or ocular hypertension. To the dry and sterile pellets of microspheres (100 μL), 700 μL of latanoprotene BUNOD (TRC-L177335-2.5MG) solution at 1 mg/mL in acetonitrile/water mixture (70/30%) were added. After 5 min of mixing at room temperature under stirring on a tube rotator (=30 rpm), the supernatants were removed for the measurement of unbound drug by RP-HPLC at 210 nm on a C18 column (46×150 mm) using a mobile phase made of acetonitrile/water containing 0.1% TFA (60:40, v/v) at a flow rate of 1 mL/min in the isocratic mode at 25° C. The amount of latanoprotene BUNOD in supernatants was obtained by extrapolation from a standard curve (0.25 to 25 μg/mL). The loaded dose was calculated by subtracting the final amount of latanoprotene BUNOD from the initial amount. The latanoprotene BUNOD loading for 1 mL of beads was obtained by multiplying by 10 the quantity loaded on 100 μL of MS.

[3] = In vitro release of latanoprost and latanoprostene BUNOD in PBS after extemporaneous loading on MS5; assay type: physicochemical; conditions: for elution after 5 weeks of incubation: loaded on MS5, PBS 37 °C (FIG. 9); for % of prostaglandin analogues release after 10 min in PBS / % of prostaglandin analogues release after 1 day in PBS / % of prostaglandin analogues release after 7 days in PBS / % of prostaglandin analogues release after 18 days in PBS: loaded on sterile MS5, PBS pH 7.4, 37 °C
Description: Then, immediately after the loading step, 50 mL of PBS (Sigma P-5368; 10 mM phosphate buffered saline; NaCl 0,136 M; KCl 0,0027 M; pH 7.4) was added to the microspheres loaded with latanoprost or latanoprostene BUNOD for the in vitro drug release (37° C., 150 rpm). The medium was completely renewed after each sample collection (10 min, 2 h, 24 h and every 3-4 days during 5 weeks). The amounts of prostaglandin analogues in PBS supernatants were determined by RP-HPLC at 210 nm for latanoprost and latanoprostene BUNOD on a C18 column (46×150 mm) using a mobile phase made of acetonitrile/water containing 0.1% TFA (60:40, v/v) at a flow rate of 1 mL/min in the isocratic mode at 25° C. The results are summarized in Table 7 and in FIG. 9 for each drug.

[4] = pubchem.ncbi.nlm.nih.gov; cited from earlier work

CC(C)OC(=O)CCC/C=C\C[C@@H]1[C@@H](/C=C/[C@@H](O)COc2cccc(C(F)(F)F)c2)[C@H](O)C[C@@H]1O [travoprost]
duration of sustained travoprost release [1]: at least two months | initial burst release of travoprost [1]: 3.5%

CC(C)OC(=O)CCC/C=C\C[C@@H]1[C@@H](CC[C@@H](O)CCc2ccccc2)[C@H](O)C[C@@H]1O [Latanoprost]
Drug loading on MS5 [2]: 3.83 ± 0.07 mg/mL | loading efficiencies (%) on MS5 [2]: (98%)** | elution after 5 weeks of incubation [3]: practically complete | % of prostaglandin analogues release after 10 min in PBS [3]: 8.7 ± 0.5% | % of prostaglandin analogues release after 1 day in PBS [3]: 42.3 ± 10% | % of prostaglandin analogues release after 7 days in PBS [3]: 59.7 ± 11.1% | % of prostaglandin analogues release after 18 days in PBS [3]: 77.5 ± 11.9%

O=C(CCC/C=C\C[C@@H]1[C@@H](CC[C@@H](O)CCc2ccccc2)[C@H](O)C[C@@H]1O)OCCCCO[N+](=O)[O-] [Latanoprostene BUNOD]
Drug loading on MS5 [2]: 6.58 ± 0.1 mg/mL | amount of drug loaded on the degradable microsphere MS5 ([2]; extemporaneous loading on sterile MS5): at least 6.5 mg | loading efficiencies (%) on MS5 [2]: (94%) | elution after 5 weeks of incubation [3]: practically complete | % of prostaglandin analogues release after 10 min in PBS [3]: 7.04 ± 2.2% | % of prostaglandin analogues release after 1 day in PBS [3]: 32.4 ± 4.1% | % of prostaglandin analogues release after 7 days in PBS [3]: 45.2 ± 4.5% | % of prostaglandin analogues release after 18 days in PBS [3]: 60 ± 6.2% | Partition coefficient P (Log P) of the prostaglandin analogues [4]: 3.79-3.94
